Like-named read-outs stand apart in the source and are kept apart here.
Columns and labels:
[1] = tested on: CaMKIIα binding to GST-GluN2B-c; settings: 4 mM ADP or AS105
Procedure: (§1) In a series of exemplary methods, an in vitro kinase assay was used where purified CaMKIIα is incubated at 30° C. with GST-GluA1 alongside ATP. CaMKIIα normally phosphorylates S831 on the GluA1 subunit and this phosphorylation can be measured as a readout of CaMKIIα enzymatic activity (see e.g., FIG. 8B). […] In another exemplary method, binding of purified CaMKIIα to immobilized GST-GluN2B-c was induced by Ca^2+/CaM in the presence of a vehicle (none), 4 mM ADP or with […] AS105. […] At the same time, two exemplary methods were performed to observe ionomycin or chemical LTP (cLTP) induced co-localization of CaMKII and GluN2B either in HEK293 cells co-expressing GFP-CaMKII and mCherry-2BC or dissociated rat hippocampal cultures expressing GFP-CaMKII and mCh-PSD95 intrabody. HEK293 cells, incubating with vehicle or 10 μM AS105, were subjected to ionomycin. Hippocampal cultures, also incubating with either vehicle or 10 μM AS105, were treated with a chemical LTP (cLTP) stimulus (e.g., 100 μM glutamate, 10 μM glycine for 45 seconds). Confocal microscopy images were taken before and after each stimulus.
(§2) One possible mechanism by which AS283 could enhance GluN2B binding more than ATP is by suppressing CaMKII-mediated phosphorylation of GluN2B at S1303, as this phosphorylation within the CaMKII binding site on GluN2B reduces CaMKII binding.
Bound CaMKII was measured via immunoblot.

purified CaMKIIα [2] = biological target: T1, purified CaMKIIα (Homo sapiens, UniProt Q9UQM7); settings: read-out: previously published Km values of CaMKII for ATP; cited from earlier work
purified CaMKIIα [3] = biological target: T1, purified CaMKIIα; assay: In vitro kinase reactions with purified CaMKIIα (GluA1 S831, T286, GluN2B S1303 phosphorylation); format: biochemical; set-up: made in house; host or cells: baculovirus/Sf9 (CaMKIIα); BL21 bacteria (CaM); settings: GST-GluA1 S831 phosphorylation, 30° C., half-maximal response, four experiments; read-out: Km value of ATP (to activate CaMKII)
Procedure: as §1
Therefore, in another exemplary method, the ability of AS283 to selective inhibit CAMKII enzymatic activity without interfering with its binding to GluN2B was tested. In a first method, in vitro kinase reactions were performed at 30° C. in 1 mM ATP measuring purified CaMKIIα phosphorylation of GST-GluA1 S831 with varying concentrations of AS283 (0.41-10 μM).
as §2
In vitro phosphorylation assays. CaMKII-mediated phosphorylation of GluA1 S831 was measured by in vitro kinase reaction with purified GST-GluA1 c-terminal tail. Reactions contained 40 nM CaMKII (or water for negative controls), 1 μM GST-GluA1, 50 mM PIPES pH 7.1, 2 mM CaCl2), 10 mM MgCl2, 1 μM calmodulin, 1-4 mM ATP, and 1 PM of okadaic acid. Reactions were done at 30° C. for 20 s; reactions were stopped by adding SDS-loading buffer and incubation in a boiling water bath for 5 min. GST, phospho-S831, CaMKII, phospho-T286, or phospho-S1303 were detected in the samples by immunoblot analysis.
Km and Ki determination. The inhibition constant Ki was calculated using the Cheng-Prusoff equation for competitive inhibition: Ki=IC50/(1+[ATP]/Km).

[4] = tested on: CaMKII movement to excitatory synapses; assay: cLTP-induced CaMKII movement to excitatory synapses in the presence of soluble oligomeric Aβ; format: cell-based; settings: 0.5 μM Aβ, 45 minutes prior to cLTP

Molecule: Nc1ncnc2c1ncn2[C@@H]1O[C@H](COP(=O)(O)OP(=O)(O)O)[C@@H](O)[C@H]1O [ADP]
- Ca2+/CaM-induced binding of CaMKIIα to immobilized GST-GluN2B-c versus vehicle (none) [1]: induced binding

Molecule: Nc1ncnc2c1ncn2[C@@H]1O[C@H](COP(=O)(O)OP(=O)(O)OP(=O)(O)O)[C@@H](O)[C@H]1O [ATP]
- Km (purified CaMKIIα [2]): 8 to 127 µM
- Km (purified CaMKIIα [3]): 33.3 µM

Molecule: C[C@@H](c1ccc(-c2ccccc2)c(F)c1)c1cc(/N=C(\N)N2CCOCC2)on1 [rimacalib]
- rescue of Aβ-blocked cLTP-induced movement of CaMKII to the synapses ([4]; inhibitor 10 μM): rescued

Molecule: Aβ: Amyloid beta (1-42) peptide purchased from Anaspec, soluble oligomeric preparation
- effect of Aβ on cLTP-induced movement of CaMKII to the synapses [4]: blocks cLTP induced movement of CaMKII to the synapses
